We go through 1 compound from ChEMBL document CHEMBL5550160, “Leveraging a rationally designed veliparib-based anilide eliciting anti-leukemic effects for the design of pH-responsive polymer nanoformulation” (Eur J Med Chem, 2024).

Experiment [1] has as its target Histone deacetylase 9 (Homo sapiens) (UniProt Q9UKV0). The experiment in a line: Inhibition of HDAC9 (unknown origin) assessed as residual activity at 1 x 10^-5M (reference value: 97.55%). Conditions: dose 1.0 10^-5M.
Experiment [2] concerns the target T1, Histone deacetylase 1 (Homo sapiens, UniProt Q13547). The experiment in a line: Inhibition of HDAC1 (unknown origin) using p53 residues 379 to 382 [RHKK(Ac)] as fluorogenic substrate assessed as residual activity at 3.33 x 10^-6M (reference value: 98.06%). Conditions: dose 3.33 10^-6M.
In experiment [3] the target is T1, Histone deacetylase 1. The experiment in a line: Inhibition of HDAC1 (unknown origin) using p53 residues 379 to 382 [RHKK(Ac)] as fluorogenic substrate assessed as residual activity at 1.11 x 10^-6M (reference value: 98.06%). Conditions: dose 1.11 10^-6M.
For experiment [4], the target named is T1, Histone deacetylase 1. The experiment in a line: Inhibition of HDAC1 (unknown origin) using p53 residues 379 to 382 [RHKK(Ac)] as fluorogenic substrate assessed as residual activity at 3.70 x 10^-7M (reference value: 98.06%). Conditions: dose 3.7 10^-7M.
In experiment [5] the target is Histone deacetylase 2 (Homo sapiens, UniProt Q92769). The experiment in a line: Inhibition of HDAC2 (unknown origin) assessed as residual activity at 1.37 x 10^-8M (reference value: 99.81%). Conditions: dose 1.37 10^-8M.
The target in experiment [6] is Histone deacetylase 4 (Homo sapiens) (UniProt P56524). The experiment in a line: Inhibition of HDAC4 (unknown origin) assessed as residual activity at 1.52 x 10^-9M (reference value: 98.90%). To be noted: dose 1.52 10^-9M.
In experiment [7] the target is Histone deacetylase 5 (Homo sapiens) (UniProt Q9UQL6). The experiment in a line: Inhibition of HDAC5 (unknown origin) assessed as residual activity at 4.57 x 10^-9M (reference value: 100%). To be noted: dose 4.57 10^-9M.
In experiment [8] the target is T2, Protein deacetylase HDAC6 (Homo sapiens) (UniProt Q9UBN7).
T2 sequence (whole entry): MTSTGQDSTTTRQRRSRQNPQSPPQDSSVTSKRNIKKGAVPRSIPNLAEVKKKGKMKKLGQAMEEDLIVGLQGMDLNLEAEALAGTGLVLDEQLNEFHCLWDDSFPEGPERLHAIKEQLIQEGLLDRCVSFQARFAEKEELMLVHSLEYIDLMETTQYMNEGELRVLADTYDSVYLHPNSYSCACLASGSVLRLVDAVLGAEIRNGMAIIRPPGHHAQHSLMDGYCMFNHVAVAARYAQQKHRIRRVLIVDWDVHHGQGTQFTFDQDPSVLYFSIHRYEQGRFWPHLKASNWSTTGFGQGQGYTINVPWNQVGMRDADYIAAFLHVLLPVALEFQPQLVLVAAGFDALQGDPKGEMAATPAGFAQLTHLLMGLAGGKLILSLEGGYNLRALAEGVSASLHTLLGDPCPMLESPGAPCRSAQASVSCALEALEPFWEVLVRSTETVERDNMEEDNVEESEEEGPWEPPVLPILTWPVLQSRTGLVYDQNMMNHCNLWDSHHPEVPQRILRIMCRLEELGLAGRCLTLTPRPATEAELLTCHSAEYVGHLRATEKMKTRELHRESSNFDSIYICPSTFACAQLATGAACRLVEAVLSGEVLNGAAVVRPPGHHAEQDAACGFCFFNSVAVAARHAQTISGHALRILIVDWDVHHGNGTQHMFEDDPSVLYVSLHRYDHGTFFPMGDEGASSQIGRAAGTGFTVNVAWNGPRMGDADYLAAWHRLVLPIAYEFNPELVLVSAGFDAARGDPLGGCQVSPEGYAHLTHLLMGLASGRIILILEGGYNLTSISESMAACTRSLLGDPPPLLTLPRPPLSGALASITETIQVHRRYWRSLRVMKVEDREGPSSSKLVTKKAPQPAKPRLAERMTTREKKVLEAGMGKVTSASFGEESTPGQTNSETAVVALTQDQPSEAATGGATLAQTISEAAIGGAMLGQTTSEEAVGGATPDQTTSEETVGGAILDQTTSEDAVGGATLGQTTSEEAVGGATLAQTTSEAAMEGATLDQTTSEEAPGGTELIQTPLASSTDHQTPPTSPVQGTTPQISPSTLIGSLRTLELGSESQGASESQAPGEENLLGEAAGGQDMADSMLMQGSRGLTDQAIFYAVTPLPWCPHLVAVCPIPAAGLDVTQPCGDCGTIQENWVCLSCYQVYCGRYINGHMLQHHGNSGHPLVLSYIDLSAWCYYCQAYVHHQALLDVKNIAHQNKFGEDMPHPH
The experiment in a line: Inhibition of HDAC6 (unknown origin) using p53 residues 379 to 382 [RHKK(Ac)] as fluorogenic substrate assessed as residual activity at 1.23 x 10^-7M (reference value: 101.06%). To be noted: dose 1.23 10^-7M.

In experiment [9] the target is Histone deacetylase 9 (Homo sapiens) (UniProt Q9UKV0). The experiment in a line: Inhibition of HDAC9 (unknown origin) assessed as residual activity at 4.12 x 10^-8M (reference value: 97.55%). Conditions: dose 4.12 10^-8M.
The target in experiment [10] is T3, Polyamine deacetylase HDAC10 (Homo sapiens) (UniProt Q969S8).
T3 sequence (whole entry): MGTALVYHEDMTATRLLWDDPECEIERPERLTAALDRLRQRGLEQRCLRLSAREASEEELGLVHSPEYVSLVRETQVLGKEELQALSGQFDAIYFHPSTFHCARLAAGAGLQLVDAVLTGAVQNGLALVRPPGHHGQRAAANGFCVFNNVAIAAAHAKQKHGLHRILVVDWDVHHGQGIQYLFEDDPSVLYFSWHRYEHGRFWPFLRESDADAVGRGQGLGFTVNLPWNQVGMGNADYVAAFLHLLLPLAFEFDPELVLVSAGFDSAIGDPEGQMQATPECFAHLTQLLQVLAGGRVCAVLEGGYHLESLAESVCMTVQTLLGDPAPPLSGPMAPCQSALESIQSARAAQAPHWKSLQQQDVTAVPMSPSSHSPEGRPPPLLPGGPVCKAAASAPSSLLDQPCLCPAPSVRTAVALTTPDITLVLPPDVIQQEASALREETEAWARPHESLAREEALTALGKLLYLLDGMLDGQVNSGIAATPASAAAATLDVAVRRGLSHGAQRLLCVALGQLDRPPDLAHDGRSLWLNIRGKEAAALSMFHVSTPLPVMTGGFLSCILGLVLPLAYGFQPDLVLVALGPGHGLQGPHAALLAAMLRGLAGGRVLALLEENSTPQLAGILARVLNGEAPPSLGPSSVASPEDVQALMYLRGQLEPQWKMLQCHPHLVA
The experiment in a line: Inhibition of HDAC10 (unknown origin) assessed as residual activity at 3.70 x 10^-7M (reference value: 101.54%). Conditions: dose 3.7 10^-7M.

Experiment [11] has as its target T3, Polyamine deacetylase HDAC10 (Homo sapiens). The experiment in a line: Inhibition of HDAC10 (unknown origin) assessed as residual activity at 4.12 x 10^-8M (reference value: 101.54%). To be noted: dose 4.12 10^-8M.

T1 sequence (Q13547 whole entry, the tested form may be a part): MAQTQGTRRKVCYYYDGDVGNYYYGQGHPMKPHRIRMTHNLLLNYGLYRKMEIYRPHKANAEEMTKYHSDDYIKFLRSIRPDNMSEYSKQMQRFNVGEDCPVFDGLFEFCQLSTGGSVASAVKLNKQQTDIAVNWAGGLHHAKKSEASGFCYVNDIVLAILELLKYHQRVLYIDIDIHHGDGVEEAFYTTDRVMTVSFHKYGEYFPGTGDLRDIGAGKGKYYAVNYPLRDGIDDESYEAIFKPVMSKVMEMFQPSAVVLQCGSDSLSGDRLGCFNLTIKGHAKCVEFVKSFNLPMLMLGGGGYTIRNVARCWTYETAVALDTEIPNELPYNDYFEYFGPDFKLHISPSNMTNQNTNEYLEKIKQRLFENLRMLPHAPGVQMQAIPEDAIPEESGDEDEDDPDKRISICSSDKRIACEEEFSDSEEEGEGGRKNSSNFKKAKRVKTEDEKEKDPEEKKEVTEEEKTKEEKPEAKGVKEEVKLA
Histone deacetylase 9 (Homo sapiens), sequence (Q9UKV0 whole entry, the tested form may be a part): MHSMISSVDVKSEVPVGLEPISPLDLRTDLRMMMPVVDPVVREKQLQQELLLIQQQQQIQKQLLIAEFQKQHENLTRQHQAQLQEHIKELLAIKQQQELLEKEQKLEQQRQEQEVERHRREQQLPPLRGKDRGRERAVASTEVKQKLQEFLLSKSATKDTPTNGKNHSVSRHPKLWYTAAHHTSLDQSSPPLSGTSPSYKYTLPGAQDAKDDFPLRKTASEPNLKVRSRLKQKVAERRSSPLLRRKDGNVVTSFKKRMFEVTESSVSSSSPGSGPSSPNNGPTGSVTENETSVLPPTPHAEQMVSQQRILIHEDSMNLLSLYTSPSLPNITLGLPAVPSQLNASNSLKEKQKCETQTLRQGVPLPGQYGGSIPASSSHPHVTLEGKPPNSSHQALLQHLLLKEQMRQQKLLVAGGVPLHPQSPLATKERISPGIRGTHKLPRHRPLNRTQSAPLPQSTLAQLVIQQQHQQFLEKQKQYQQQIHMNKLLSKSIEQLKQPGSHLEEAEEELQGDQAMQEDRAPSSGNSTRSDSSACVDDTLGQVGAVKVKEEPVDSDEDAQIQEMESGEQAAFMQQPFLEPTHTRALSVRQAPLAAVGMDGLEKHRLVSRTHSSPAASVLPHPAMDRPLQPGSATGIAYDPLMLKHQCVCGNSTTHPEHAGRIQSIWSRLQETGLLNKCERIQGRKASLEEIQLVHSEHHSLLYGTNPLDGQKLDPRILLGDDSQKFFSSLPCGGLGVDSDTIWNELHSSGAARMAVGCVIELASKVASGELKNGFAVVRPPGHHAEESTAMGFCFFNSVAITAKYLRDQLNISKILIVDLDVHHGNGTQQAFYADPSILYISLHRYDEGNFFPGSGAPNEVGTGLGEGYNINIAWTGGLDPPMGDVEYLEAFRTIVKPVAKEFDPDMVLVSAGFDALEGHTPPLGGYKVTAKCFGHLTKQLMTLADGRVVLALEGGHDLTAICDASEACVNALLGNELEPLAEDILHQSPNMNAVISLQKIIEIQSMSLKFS
Histone deacetylase 5 (Homo sapiens), sequence (Q9UQL6 whole entry): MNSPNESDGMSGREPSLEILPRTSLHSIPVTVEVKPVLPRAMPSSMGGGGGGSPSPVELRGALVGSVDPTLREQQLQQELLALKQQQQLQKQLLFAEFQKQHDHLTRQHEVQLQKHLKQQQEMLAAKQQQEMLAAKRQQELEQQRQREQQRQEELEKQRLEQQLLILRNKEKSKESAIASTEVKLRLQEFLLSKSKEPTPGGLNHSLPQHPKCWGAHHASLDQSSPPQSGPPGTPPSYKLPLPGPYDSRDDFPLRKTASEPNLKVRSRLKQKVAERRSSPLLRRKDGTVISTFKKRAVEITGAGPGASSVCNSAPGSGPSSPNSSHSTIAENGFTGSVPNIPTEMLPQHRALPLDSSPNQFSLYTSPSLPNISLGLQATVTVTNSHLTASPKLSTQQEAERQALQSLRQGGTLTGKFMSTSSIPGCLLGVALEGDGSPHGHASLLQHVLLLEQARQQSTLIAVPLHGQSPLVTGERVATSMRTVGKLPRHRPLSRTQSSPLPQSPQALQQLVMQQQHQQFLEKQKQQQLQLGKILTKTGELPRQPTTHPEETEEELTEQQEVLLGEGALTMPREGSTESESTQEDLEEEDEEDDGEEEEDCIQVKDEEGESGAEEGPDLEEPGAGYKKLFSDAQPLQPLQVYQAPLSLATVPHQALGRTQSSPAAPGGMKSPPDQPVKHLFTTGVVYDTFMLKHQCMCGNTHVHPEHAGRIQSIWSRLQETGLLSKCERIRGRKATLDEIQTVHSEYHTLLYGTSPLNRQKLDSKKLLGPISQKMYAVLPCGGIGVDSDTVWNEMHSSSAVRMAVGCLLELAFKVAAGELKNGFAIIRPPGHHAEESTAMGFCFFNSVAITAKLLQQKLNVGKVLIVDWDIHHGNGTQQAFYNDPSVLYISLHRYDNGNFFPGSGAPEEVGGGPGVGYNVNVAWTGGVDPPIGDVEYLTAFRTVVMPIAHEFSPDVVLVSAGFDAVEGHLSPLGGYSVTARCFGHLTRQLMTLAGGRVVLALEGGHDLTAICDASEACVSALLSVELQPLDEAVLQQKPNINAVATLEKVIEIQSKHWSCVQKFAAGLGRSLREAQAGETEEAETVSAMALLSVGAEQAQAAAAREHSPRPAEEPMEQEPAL
Histone deacetylase 4 (Homo sapiens), sequence (P56524 whole entry): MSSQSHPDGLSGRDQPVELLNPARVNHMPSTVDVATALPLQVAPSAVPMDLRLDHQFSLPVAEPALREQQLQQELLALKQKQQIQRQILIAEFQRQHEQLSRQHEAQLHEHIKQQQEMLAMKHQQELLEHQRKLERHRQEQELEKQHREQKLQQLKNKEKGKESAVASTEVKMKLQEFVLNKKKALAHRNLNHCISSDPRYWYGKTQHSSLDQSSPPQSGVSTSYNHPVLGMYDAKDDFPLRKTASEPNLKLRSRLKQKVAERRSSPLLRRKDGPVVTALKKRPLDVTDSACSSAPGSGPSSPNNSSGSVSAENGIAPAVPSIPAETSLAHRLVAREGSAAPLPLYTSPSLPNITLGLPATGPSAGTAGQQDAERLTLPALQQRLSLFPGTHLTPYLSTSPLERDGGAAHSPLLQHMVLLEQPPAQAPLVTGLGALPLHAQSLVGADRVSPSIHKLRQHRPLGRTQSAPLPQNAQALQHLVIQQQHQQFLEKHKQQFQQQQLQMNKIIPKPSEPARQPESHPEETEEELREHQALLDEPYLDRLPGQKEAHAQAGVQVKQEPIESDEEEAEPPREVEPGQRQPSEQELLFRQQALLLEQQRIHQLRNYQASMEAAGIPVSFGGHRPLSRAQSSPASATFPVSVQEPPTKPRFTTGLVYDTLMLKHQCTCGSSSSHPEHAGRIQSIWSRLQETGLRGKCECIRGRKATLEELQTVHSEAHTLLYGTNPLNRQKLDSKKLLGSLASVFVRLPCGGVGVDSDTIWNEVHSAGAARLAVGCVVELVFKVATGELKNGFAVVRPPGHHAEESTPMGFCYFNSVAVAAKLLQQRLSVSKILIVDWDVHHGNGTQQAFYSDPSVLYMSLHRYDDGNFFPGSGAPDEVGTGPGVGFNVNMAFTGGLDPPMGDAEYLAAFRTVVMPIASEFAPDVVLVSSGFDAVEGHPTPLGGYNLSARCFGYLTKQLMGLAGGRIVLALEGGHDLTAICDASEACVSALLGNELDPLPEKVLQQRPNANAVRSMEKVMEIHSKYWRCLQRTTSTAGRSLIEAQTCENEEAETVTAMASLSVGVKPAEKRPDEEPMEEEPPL
Histone deacetylase 2, sequence (Q92769 whole entry): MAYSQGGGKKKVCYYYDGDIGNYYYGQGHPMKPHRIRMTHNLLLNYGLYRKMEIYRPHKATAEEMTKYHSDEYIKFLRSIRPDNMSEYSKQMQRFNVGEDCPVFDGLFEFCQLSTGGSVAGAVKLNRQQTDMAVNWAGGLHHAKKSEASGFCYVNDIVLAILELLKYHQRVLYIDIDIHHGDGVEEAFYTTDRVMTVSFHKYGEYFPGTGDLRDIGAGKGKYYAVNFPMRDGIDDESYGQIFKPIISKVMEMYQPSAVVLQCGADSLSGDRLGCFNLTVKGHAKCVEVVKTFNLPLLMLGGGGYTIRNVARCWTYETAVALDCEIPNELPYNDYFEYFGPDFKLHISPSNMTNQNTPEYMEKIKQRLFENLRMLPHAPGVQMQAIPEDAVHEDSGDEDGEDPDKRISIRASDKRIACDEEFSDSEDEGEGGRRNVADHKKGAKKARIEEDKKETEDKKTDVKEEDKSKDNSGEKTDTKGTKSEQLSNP

Consider `NC(=O)c1cccc2[nH]c(-c3ccc(NCc4ccc(C(=O)Nc5ccccc5N)cc4)cc3)nc12`, for which the Activity in experiment [1] is 100%; in experiment [2], 6.73%; in experiment [3] it was 11%; in [4] it was 16.9%; in experiment [5] it was 86.2%; in [6], 94.7%. The Activity in experiment [7] came out at 82.1%; in [8], 91.9%; in experiment [9] it was 102%; in experiment [10] it was 94.8%; in experiment [11] it was 102%.
